Reference: patent US6632820B1, “Pyrimidine compounds” (AstraZeneca AB, priority 1998, dated 2003)

Target: T1, CDK4/Cyclin D1 (Homo sapiens, UniProt P11802)
T1 construct: made in house; host or cells: SF21 insect cells (Spodoptera frugiperda), baculovirus co-infection, vector pVL1393
Assay: CDK Inhibition Assay (Scintillation Proximity Assay, GST-Retinoblastoma substrate)
Assay type: biochemical
Settings: in-vitro kinase assay, incorporation of [γ-33-P]-ATP into GST-Rb, 60 minutes at room temperature; read-out: CDK4 inhibitory activity IC50
Protocol: The compounds were tested in an in vitro kinase assay in 96 well format using Scintillation Proximity Assay (SPA—obtained from Amersham) for measuring incorporation of [γ-33-P]-Adenosine Triphosphate into a test substrate (GST-Retinoblastoma). In each well was placed the compound to be tested (diluted in DMSO and water to correct, concentrations) and in control wells either p 16 as an inhibitor control or DMSO as a positive control. Approximately 0.5 μl of CDK4/Cyclin D1 partially-purified enzyme (amount dependent on enzyme activity) diluted in 25 μl incubation buffer was added to each well then 20 μl of GST-Rb/ATP/ATP33 mixture (containing 0.54 μg GST-Rb and 0.2 μM ATP and 0.14 μCi [γ-33-P]-Adenosine Triphosphate), and the resulting mixture shaken gently, then incubated at room temperature for 60 minutes. To each well was then added 150 μL stop solution containing (0.8 mg/well of Protein A-PVT SPA bead (Amersham)), 20 pM/well of Anti-Glutathione Transferase, Rabbit IgG (obtained from Molecular Probes), 61 mM EDTA and 50 mM HEPES pH 7.5 containing 0.05% sodium azide. The plates were sealed with Topseal-S plate sealers, left for two hours then spun at 2500 rpm, 1124×g., for 5 minutes. The plates were read on a Topcount for 30 seconds per well. […]

T1 sequence (P11802 whole entry): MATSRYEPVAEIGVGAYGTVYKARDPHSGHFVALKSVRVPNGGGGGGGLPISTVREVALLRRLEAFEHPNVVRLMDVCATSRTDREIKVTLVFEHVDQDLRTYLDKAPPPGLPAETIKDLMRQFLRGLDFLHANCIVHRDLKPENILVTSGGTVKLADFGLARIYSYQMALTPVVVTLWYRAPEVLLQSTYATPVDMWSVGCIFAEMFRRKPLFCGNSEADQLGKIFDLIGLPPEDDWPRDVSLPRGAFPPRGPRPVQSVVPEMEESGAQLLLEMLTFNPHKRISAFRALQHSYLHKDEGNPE
T1 sequence (P24385 whole entry partner): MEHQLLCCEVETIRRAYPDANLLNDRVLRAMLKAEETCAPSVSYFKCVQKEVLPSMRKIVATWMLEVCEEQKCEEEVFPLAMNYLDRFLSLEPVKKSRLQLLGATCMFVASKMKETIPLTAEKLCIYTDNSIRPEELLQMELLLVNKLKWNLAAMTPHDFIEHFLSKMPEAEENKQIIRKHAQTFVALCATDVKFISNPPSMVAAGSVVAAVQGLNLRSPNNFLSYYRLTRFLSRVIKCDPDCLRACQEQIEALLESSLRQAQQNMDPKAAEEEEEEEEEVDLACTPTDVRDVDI

IC50 [µM] | Structure (SMILES)
0.11 | Cc1ccc(N(CC#N)c2cc(Nc3ccc(OCC(O)CN(C)C)cc3)ncn2)c(Br)c1 (centres unmarked) [Example 1, 4-{4-[3-(N,N-Dimethyl)amino-2-hydroxyproroxy]anilino}-6-(N-cyanomethyl-2-bromo-4-methylanilino)pyrimidine]
0.07 | Cc1ccc(Cl)c(N(CC#N)c2cc(Nc3ccc(OCC(O)CN(C)C)cc3)ncn2)c1 (centres unmarked) [Example 2, 4-{4-[3-(N,N-Dimethyl)amino-2-hydroxylropoxy]anilino}-6-(N-cyanomethyl-2-chloro-5-methylanilino)pyrimidine]
